From US10472336B2, “Modulators of indoleamine 2,3-dioxygenase” (GlaxoSmithKline Intellectual Property (No.2) Limited, priority 2015, dated 2019)
Counter-ions that a name gives are not always drawn.

Columns and labels:
[1] = target: T1, indoleamine 2, 3-dioxygenase (IDO1) (Homo sapiens, UniProt P14902); assay: HeLa IDOi assay (kynurenine detection by mass spectrometry); type: cell-based; set-up: human epithelial HeLa cells (CCL-2; host or cells: HeLa cells stimulated with human IFN-γ; settings: IFN-γ stimulated human epithelial HeLa cells, 2 days
Procedure, shortened: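 HeLa cells (5,000/well) stimulated with 10 nM IFN-γ to induce IDO1 were exposed to 11-point compound dilutions for 2 days at 37 °C. Supernatant kynurenine was measured by RapidFire MS as a ratio to internal standard; cytotoxicity was read with CellTiter-Glo. Four-parameter fits gave pIC50 and pCC50.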

[2] = target: T1, indoleamine 2, 3-dioxygenase (IDO1); assay: PBMC IDOi assay (kynurenine detection by mass spectrometry); type: cell-based; settings: IFN-γ and LPS stimulated human PBMC, 2 days
Description: Compounds of the present invention were tested via high-throughput cellular assays utilizing detection of kynurenine via mass spectrometry and cytotoxicity as end-points. For the mass spectrometry and cytotoxicity assays, human peripheral blood mononuclear cells (PBMC) (PB003F; AllCells®, Alameda, Calif.) were stimulated with human interferon-γ (IFN-γ) (Sigma-Aldrich Corporation, St. Louis, Mo.) and lipopolysaccharide from Salmonella minnesota (LPS) (Invivogen, San Diego, Calif.) to induce the expression of indoleamine 2, 3-dioxygenase (IDO1). Compounds with IDO1 inhibitory properties decreased the amount of kynurenine produced by the cells via the tryptophan catabolic pathway. Cellular toxicity due to the effect of compound treatment was measured using CellTiter-Glo® reagent (CTG) (Promega Corporation, Madison, Wis.), which is based on luminescent detection of ATP, an indicator of metabolically active cells.
In preparation for the assays, test compounds were serially diluted 3-fold in DMSO from a typical top concentration of 5 mM and plated at 0.5 μL in 384-well, polystyrene, clear bottom, tissue culture treated plates with lids (Greiner Bio-One, Kremsmünster, Austria) to generate 11-point dose response curves. Low control wells (0% kynurenine or 100% cytotoxicity) contained either 0.5 μL of DMSO in the presence of unstimulated (−IFN-γ/−LPS) PBMCs for the mass spectrometry assay or 0.5 μL of DMSO in the absence of cells for the cytotoxicity assay, and high control wells (100% kynurenine or 0% cytotoxicity) contained 0.5 μL of DMSO in the presence of stimulated (+IFN-γ/+LPS) PBMCs for both the mass spectrometry and cytotoxicity assays.
Frozen stocks of PBMCs were washed and recovered in RPMI 1640 medium (Thermo Fisher Scientific, Inc., Waltham, Mass.) supplemented with 10% v/v heat-inactivated fetal bovine serum (FBS) (Thermo Fisher Scientific, Inc., Waltham, Mass.), and 1× penicillin-streptomycin antibiotic solution (Thermo Fisher Scientific, Inc., Waltham, Mass.). The cells were diluted to 1,000,000 cells/mL in the supplemented RPMI 1640 medium. 50 μL of either the cell suspension, for the mass spectrometry assay, or medium alone, for the cytotoxicity assay, were added to the low control wells, on the previously prepared 384-well compound plates, resulting in 50,000 cells/well or 0 cells/well respectively. IFN-γ and LPS were added to the remaining cell suspension at final concentrations of 100 ng/ml and 50 ng/ml respectively, and 50 μL of the stimulated cells were added to all remaining wells on the 384-well compound plates. The plates, with lids, were then placed in a 37° C., 5% CO2 humidified incubator for 2 days.
Following incubation, the 384-well plates were removed from the incubator and allowed to equilibrate to room temperature for 30 minutes. For the cytotoxicity assay, CellTiter-Glo® was prepared according to the manufacturer's instructions, and 40 μL were added to each plate well. After a twenty minute incubation at room temperature, luminescence was read on an EnVision® Multilabel Reader (PerkinElmer Inc., Waltham, Mass.). For the mass spectrometry assay, 10 μL of supernatant from each well of the compound-treated plates were added to 40 μL of acetonitrile, containing 10 μM of an internal standard for normalization, in 384-well, polypropylene, V-bottom plates (Greiner Bio-One, Kremsmünster, Austria) to extract the organic analytes. Following centrifugation at 2000 rpm for 10 minutes, 10 μL from each well of the acetonitrile extraction plates were added to 90 μL of sterile, distilled H2O in 384-well, polypropylene, V-bottom plates for analysis of kynurenine and the internal standard on the RapidFire 300 (Agilent Technologies, Santa Clara, Calif.) and 4000 QTRAP MS (SCIEX, Framingham, Mass.). MS data were integrated using Agilent Technologies' RapidFire Integrator software, and data were normalized for analysis as a ratio of kynurenine to the internal standard. […]

T1 sequence (P14902 whole entry): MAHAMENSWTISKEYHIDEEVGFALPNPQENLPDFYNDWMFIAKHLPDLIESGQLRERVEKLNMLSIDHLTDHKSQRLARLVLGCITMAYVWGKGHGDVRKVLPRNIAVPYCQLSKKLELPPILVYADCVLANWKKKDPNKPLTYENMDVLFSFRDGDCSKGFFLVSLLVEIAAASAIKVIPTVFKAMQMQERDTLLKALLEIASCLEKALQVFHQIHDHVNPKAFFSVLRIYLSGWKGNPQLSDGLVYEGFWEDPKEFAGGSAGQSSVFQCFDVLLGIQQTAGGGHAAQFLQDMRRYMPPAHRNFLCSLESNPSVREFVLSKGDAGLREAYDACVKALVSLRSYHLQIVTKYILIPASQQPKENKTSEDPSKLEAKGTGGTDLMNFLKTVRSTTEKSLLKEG

SMILES | EC50 [1] [nM] | EC50 [2] [nM]
CC(C)CN(CC(C)C)c1ccc(C(C)CC(=O)O)cc1Nc1cnccn1 (stereo not drawn) [Example 58, 3-(4-(diisobutylamino)-3-(pyrazin-2-ylamino)phenyl)butanoic acid] | 316 | 158
CC(C)CN(c1ccc(C(C)CC(=O)O)cc1NCc1ccco1)C1CCCCC1 (stereo not drawn) [Example 59, 3-(4-(cyclohexyl(isobutyl)amino)-3-((furan-2-ylmethyl)amino)phenyl)butanoic acid] | 501 | 200
Cc1nc(C(F)(F)F)sc1Nc1cc(C(C)CC(=O)O)ccc1N(CC(C)C)CC(C)C (stereo not drawn) [Example 60, 3-(4-(diisobutylamino)-3-((4-methyl-2-(trifluoromethyl)thiazol-5-yl)amino)phenyl)butanoic acid] | 501 | 398
CC(C)CN(CC(C)C)c1ccc(C(C)CC(=O)O)cc1Nc1cnc(C2CC2)s1 (stereo not drawn) [Example 61, 3-(3-((2-cyclopropylthiazol-5-yl)amino)-4-(diisobutylamino)phenyl)butanoic acid] | 63.1 | 31.6
CC(C)CN(c1ccc(C(C)CC(=O)O)cc1NC1=N[C@H](C(F)(F)F)CS1)C1CCCCC1 (stereo partly drawn) [Example 75, 3-(4-(Cyclohexyl(isobutyl)amino)-3-(((R)-4-(trifluoromethyl)-4,5-dihydrothiazol-2-yl)amino)phenyl)butanoic Acid] | 31.6 | 63.1
CC(C)CN(c1ccc(C(C)CC(=O)O)cc1NC1=N[C@@H](C(F)(F)F)CO1)C1CCCCC1 (stereo partly drawn) [Example 76, 3-(4-(Cyclohexyl(isobutyl)amino)-3-(((R)-4-(trifluoromethyl)-4,5-dihydrooxazol-2-yl)amino)phenyl)butanoic acid] | 31.6 | 20

Now from value to compound:

EC50 [1] [nM] | EC50 [2] [nM] | SMILES
3.16 | 0.631 | CC(C)CN(CC(C)C)c1ccc(C(C)CC(=O)O)cc1Nc1nnc(C(F)(F)F)s1 (stereo not drawn) [Example 55, 3-(4-(diisobutylamino)-3-((5-(trifluoromethyl)-1,3,4-thiadiazol-2-yl)amino)phenyl)butanoic acid, 2,2,2-trifluoroacetic acid salt]
3.16 | 0.251 | CC(C)CN(c1ccc([C@H](C)CC(=O)O)cc1Nc1nnc(C2CC2)s1)C1CCCCC1 [Example 56, (R)-3-(4-(cyclohexyl(isobutyl)amino)-3-((5-cyclopropyl-1,3,4-thiadiazol-2-yl)amino)phenyl)butanoic acid]
2 | 0.631 | CC(C)CN(c1ccc([C@@H](C)CC(=O)O)cc1Nc1nnc(C2CC2)s1)C1CCCCC1 [Example 57, (S)-3-(4-(cyclohexyl(isobutyl)amino)-3-((5-cyclopropyl-1,3,4-thiadiazol-2-yl)amino)phenyl)butanoic acid]
3.98 | 2.51 | CC(C)CN(c1ccc([C@@H](C)CC(=O)O)cc1Nc1ccnc(Cl)n1)C1CCCCC1 [Example 62, (S)-3-(3-((2-chloropyrimidin-4-yl)amino)-4-(cyclohexyl(isobutyl)amino)phenyl)butanoic acid]
31.6 | 20 | CC(C)CN(c1ccc([C@H](C)CC(=O)O)cc1Nc1ccnc(Cl)n1)C1CCCCC1 [Example 63, (R)-3-(3-((2-chloropyrimidin-4-yl)amino)-4-(cyclohexyl(isobutyl)amino)phenyl)butanoic acid]
6.31 | 0.794 | CC(C)CN(c1ccc(C(CC(=O)O)C(F)(F)F)cc1Nc1nc(Cl)ns1)C1CCCCC1 (stereo not drawn) [Example 71, 3-(3-((3-Chloro-1,2,4-thiadiazol-5-yl)amino)-4-(cyclohexyl(isobutyl)amino)phenyl)-4,4,4-trifluorobutanoic Acid]
